In brackets after ≈: the same amount, converted by molar mass.
Experiments:
[1] = system: M. smegmatis mc2 155/pTA-M+; assay: microbe, parasite or virus in culture; type: cell-based; details: Mycolicibacterium smegmatis, MC2155, read-out: MIC, M. smegmatis mc2 155/pTA-M+
[2] = system: M. smegmatis; assay: M. smegmatis loss of viability (viable colony counts); type: cell-based

| Structure (SMILES) | MIC [1] [µM] | Time course of loss of viable colony counts, MtbTopI overexpression [2] |
| --- | --- | --- |
| CCCC[C@@H](CN[C@H](CN)CCCCNC)NCc1cccc2ccccc12 [Compound 2471-12, (S)—N6-methyl-N2-((S)-2-(naphthalen-1-ylmethylamino)hexyl)hexane-1,2,6-triamine] | 50 (≈ 19.2 µg/mL) | reduction of cell killing |
| CCCC[C@@H](CN[C@@H](CN)CCCCNC)NCc1cccc2ccccc12 [Compound 2471-36] | 50 (≈ 19.2 µg/mL) |  |

Source: patent US9988341B2, “Bacterial topoisomerase inhibitors and use thereof” (THE FLORIDA INTERNATIONAL UNIVERSITY BOARD OF TRUSTEES, priority 2016, dated 2018)
